Source: patent US20240368214A1, “POSITIVE NMDA-MODULATING COMPOUNDS AND METHODS OF USE THEREOF” (SAGE THERAPEUTICS, INC., priority 2021, published 2024)

Molecular target: T1, recombinant human GluN1/GluN2A receptor (Homo sapiens, UniProt Q05586+Q12879)
T1 construct: expressed in transfected cells; host or cells: HEK293, tetracycline-inducible expression
Test: Whole-cell patch clamp of mammalian cells (Syncropatch 384i), NMDA modulation
Format: cell-based
Details: Table H-2; HEK293 cells, human GluN1/GluN2A; glutamate 1 μM / glycine 100 μM; -80 mV; peak amplitude increase; read-out: EC50
Summary of the method: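 HEK293 cells with tetracycline-induced (50 ng/ml, 18–24 h) human GluN1/GluN2A, automated whole-cell recording at −80 mV, pH 7.4 external. After 120 s compound pre-incubation, compound applied with glutamate 1 μM/glycine 100 μM; fold peak increase (Icomp/Icontrol)−1 over 8 concentrations fitted four-parameter logistic.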

T1 sequence (Q12879 23-1464, other chains not shown): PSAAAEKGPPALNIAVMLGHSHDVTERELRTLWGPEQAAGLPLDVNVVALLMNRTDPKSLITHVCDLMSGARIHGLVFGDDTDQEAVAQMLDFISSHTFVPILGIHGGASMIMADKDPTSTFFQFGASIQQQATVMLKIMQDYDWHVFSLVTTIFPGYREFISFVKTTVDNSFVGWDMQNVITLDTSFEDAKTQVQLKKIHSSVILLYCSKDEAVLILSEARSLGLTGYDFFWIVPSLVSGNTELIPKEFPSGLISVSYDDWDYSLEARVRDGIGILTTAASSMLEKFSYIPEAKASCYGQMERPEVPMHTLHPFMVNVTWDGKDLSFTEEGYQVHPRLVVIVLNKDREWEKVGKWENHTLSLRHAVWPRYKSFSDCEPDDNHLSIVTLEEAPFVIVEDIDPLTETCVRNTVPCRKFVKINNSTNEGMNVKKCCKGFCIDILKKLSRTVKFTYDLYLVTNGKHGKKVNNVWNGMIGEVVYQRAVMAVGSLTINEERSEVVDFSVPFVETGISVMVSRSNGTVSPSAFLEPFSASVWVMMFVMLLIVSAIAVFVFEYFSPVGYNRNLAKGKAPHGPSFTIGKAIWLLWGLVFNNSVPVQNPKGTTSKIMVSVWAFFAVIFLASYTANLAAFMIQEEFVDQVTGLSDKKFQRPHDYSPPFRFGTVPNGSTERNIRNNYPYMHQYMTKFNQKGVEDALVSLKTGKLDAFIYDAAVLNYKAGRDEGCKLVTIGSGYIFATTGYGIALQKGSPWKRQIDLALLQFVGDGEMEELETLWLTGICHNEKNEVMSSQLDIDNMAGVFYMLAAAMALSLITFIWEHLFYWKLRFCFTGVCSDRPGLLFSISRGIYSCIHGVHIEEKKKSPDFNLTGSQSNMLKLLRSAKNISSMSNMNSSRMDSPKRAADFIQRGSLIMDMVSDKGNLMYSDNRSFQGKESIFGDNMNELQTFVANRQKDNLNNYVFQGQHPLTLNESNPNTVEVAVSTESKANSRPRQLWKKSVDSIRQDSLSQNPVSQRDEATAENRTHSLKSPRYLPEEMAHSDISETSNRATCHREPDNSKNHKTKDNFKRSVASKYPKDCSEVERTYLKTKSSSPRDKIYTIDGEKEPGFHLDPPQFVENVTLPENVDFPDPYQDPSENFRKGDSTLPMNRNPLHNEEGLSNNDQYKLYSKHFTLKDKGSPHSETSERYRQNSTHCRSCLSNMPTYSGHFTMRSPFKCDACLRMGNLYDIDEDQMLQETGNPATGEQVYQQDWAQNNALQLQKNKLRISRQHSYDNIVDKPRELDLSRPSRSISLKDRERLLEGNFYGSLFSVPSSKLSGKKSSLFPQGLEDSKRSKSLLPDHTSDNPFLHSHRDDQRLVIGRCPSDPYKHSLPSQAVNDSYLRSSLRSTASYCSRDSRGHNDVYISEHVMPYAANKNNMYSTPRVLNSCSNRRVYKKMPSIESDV

Compound	EC50
CC[C@]1(O)CC[C@@]2(C)C(=CC[C@H]3[C@@H]4CCC[C@H]([C@H](C)CC[C@@](C)(O)C(F)(F)F)[C@@]4(C)CC[C@@H]32)C1 [Compound H-10, (2S,4aR,4bS,6aR,7R,10aS,10bS)-2-ethyl-4a,6a-dimethyl-7-((2R,5R)-6,6,6-trifluoro-5-hydroxy-5-methylhexan-2-yl)-1,2,3,4,4a,4b,5,6,6a,7,8,9,10,10a,10b,11-hexadecahydrochrysen-2-ol]	500 to 1000 nM
C[C@H](CC[C@@](C)(O)C(F)(F)F)[C@H]1CCC[C@H]2[C@@H]3CC=C4C[C@@](C)(O)CC[C@]4(C)[C@H]3CC[C@]12C [Compound H-11, (2S,4aR,4bS,6aR,7R,10aS,10bS)-2,4a,6a-trimethyl-7-((2R,5R)-6,6,6-trifluoro-5-hydroxy-5-methylhexan-2-yl)-1,2,3,4,4a,4b,5,6,6a,7,8,9,10,10a,10b,11-hexadecahydrochrysen-2-ol]	100 to 500 nM
